Reference: patent US9221746B2, “Homo- and hetero-polyamino-acid derivatives of fullerene C60, method for producing same, and pharmaceutical compositions based on said derivatives” (priority 2011, dated 2015)

Test system: A/Aichi/2/69 (H3N2) influenza virus
Experiment: Induced influenza pneumonia in mice
[1] = LD70, intraperitoneally 100 mg/kg/day
[2] = LD90, intramuscularly 50 mg/kg/day
[3] = LD90, intramuscularly 100 mg/kg/day
[4] = LD90, intramuscularly 200 mg/kg/day
[5] = LD90, intraperitoneally 50 mg/kg/day
[6] = LD90, intraperitoneally 100 mg/kg/day

Fullerene Poly(Aminocaproic Acid) of Formula C60(H3){NH(CH2)5COO—}3{NH3^+(CH2)5COOH}3 [Agent No. 1]
Percent body weight change in days post infection (LD70, intraperitoneally 50 mg/kg/day, day 11): +36% | Percent body weight change in days post infection (LD70, intraperitoneally 50 mg/kg/day, day 13): +40% | Average lifetime (days) [1]: 13.7 (1-3 d.) days | Percent death protection (%) [1]: 60% | Percent body weight change in days post infection (LD70, intraperitoneally 100 mg/kg/day, day 1): +19% | Percent body weight change in days post infection (LD70, intraperitoneally 100 mg/kg/day, day 2): +23% | Percent body weight change in days post infection (LD70, intraperitoneally 100 mg/kg/day, day 3): +22% | Percent body weight change in days post infection (LD70, intraperitoneally 100 mg/kg/day, day 4): +18% | Percent body weight change in days post infection (LD70, intraperitoneally 100 mg/kg/day, day 5): +15% | Percent body weight change in days post infection (LD70, intraperitoneally 100 mg/kg/day, day 7): +18% | Percent body weight change in days post infection (LD70, intraperitoneally 100 mg/kg/day, day 9): +25% | Percent body weight change in days post infection (LD70, intraperitoneally 100 mg/kg/day, day 11): +33% | Percent body weight change in days post infection (LD70, intraperitoneally 100 mg/kg/day, day 13): +41% | Percent death protection (%) (LD70, intraperitoneally 200 mg/kg/day): 0% | Percent body weight change in days post infection (LD70, intraperitoneally 200 mg/kg/day, day 1): +7% | Percent body weight change in days post infection (LD70, intraperitoneally 200 mg/kg/day, day 2): +6% | Percent body weight change in days post infection (LD70, intraperitoneally 200 mg/kg/day, day 3): +5% | Percent body weight change in days post infection (LD70, intraperitoneally 200 mg/kg/day, day 4): −4% | Percent body weight change in days post infection (LD70, intraperitoneally 200 mg/kg/day, day 5): −3% | Percent body weight change in days post infection (LD70, intraperitoneally 200 mg/kg/day, day 7): −7% | Percent body weight change in days post infection (LD70, intraperitoneally 200 mg/kg/day, day 9): +4% | Percent body weight change in days post infection (LD70, intraperitoneally 200 mg/kg/day, day 11): +6% | Percent body weight change in days post infection (LD70, intraperitoneally 200 mg/kg/day, day 13): +15% | Average lifetime (days) (LD70, orally 100 mg/kg/day): 13.1 (1-8 d., 1-10 d., 1-11 d.) days | Percent death protection (%) (LD70, orally 100 mg/kg/day): 40% | Percent body weight change in days post infection (LD70, orally 100 mg/kg/day, day 1): +19% | Percent body weight change in days post infection (LD70, orally 100 mg/kg/day, day 2): +23% | Percent body weight change in days post infection (LD70, orally 100 mg/kg/day, day 3): +25% | Percent body weight change in days post infection (LD70, orally 100 mg/kg/day, day 4): +22% | Percent body weight change in days post infection (LD70, orally 100 mg/kg/day, day 5): +16% | Percent body weight change in days post infection (LD70, orally 100 mg/kg/day, day 7): +17% | Percent body weight change in days post infection (LD70, orally 100 mg/kg/day, day 9): +24% | Percent body weight change in days post infection (LD70, orally 100 mg/kg/day, day 11): +43% | Percent body weight change in days post infection (LD70, orally 100 mg/kg/day, day 13): +51% | Percent death protection (%) (LD70, orally 200 mg/kg/day): 70% | average lifetime (LD70, orally 200 mg/kg/day): >16 days | Percent body weight change in days post infection (LD70, orally 200 mg/kg/day, day 1): +26% | Percent body weight change in days post infection (LD70, orally 200 mg/kg/day, day 2): +31% | Percent body weight change in days post infection (LD70, orally 200 mg/kg/day, day 3): +36% | Percent body weight change in days post infection (LD70, orally 200 mg/kg/day, day 4): +36% | Percent body weight change in days post infection (LD70, orally 200 mg/kg/day, day 5): +36% | Percent body weight change in days post infection (LD70, orally 200 mg/kg/day, day 7): +38% | Percent body weight change in days post infection (LD70, orally 200 mg/kg/day, day 9): +47% | Percent body weight change in days post infection (LD70, orally 200 mg/kg/day, day 11): +51% | Percent body weight change in days post infection (LD70, orally 200 mg/kg/day, day 13): +57% | Average lifetime (days) (LD70, orally 300 mg/kg/day): 12.8 (1-8 d., 2-9 d.) days | Percent death protection (%) (LD70, orally 300 mg/kg/day): 40% | Percent body weight change in days post infection (LD70, orally 300 mg/kg/day, day 1): +24% | Percent body weight change in days post infection (LD70, orally 300 mg/kg/day, day 2): +27% | Percent body weight change in days post infection (LD70, orally 300 mg/kg/day, day 3): +28% | Percent body weight change in days post infection (LD70, orally 300 mg/kg/day, day 4): +24% | Percent body weight change in days post infection (LD70, orally 300 mg/kg/day, day 5): +19% | Percent body weight change in days post infection (LD70, orally 300 mg/kg/day, day 7): +23% | Percent body weight change in days post infection (LD70, orally 300 mg/kg/day, day 9): +35% | Percent body weight change in days post infection (LD70, orally 300 mg/kg/day, day 11): +36% | Percent body weight change in days post infection (LD70, orally 300 mg/kg/day, day 13): +38% | Average lifetime (days) [2]: 11.4 (2-7 d., 1-8 d., 2-11 d) days | Percent death protection (%) [2]: 40% | Average lifetime (days) [3]: 13.0 (1-8 d., 1-9 d., 1-11 d.) days | Percent death protection (%) [3]: 60% | Average lifetime (days) [4]: 13.1 (1-7 d., 2-11 d) days | Percent death protection (%) [4]: 60% | Average lifetime (days) [5]: 11.5 (2-7 d. D-9 d., 2-11 d.) days | Percent death protection (%) [5]: 40% | Average lifetime (days) [6]: 10 D3-7 d., 2-8 d., 1-9 d.) days | Percent death protection (%) [6]: 30% | Average lifetime (days) (LD90, orally 100 mg/kg/day): 10.8 (2-7 d., 1-9 d., 2-10 d., 1-11 d) days | Percent death protection (%) (LD90, orally 100 mg/kg/day): 30% | Average lifetime (days) (LD90, orally 200 mg/kg/day): 13.4 (1-10 d., 2-11 d) days | Percent death protection (%) (LD90, orally 200 mg/kg/day): 60% | increase of lifetime (intramuscular, doses of 100 and 200 mg/kg/day): twofold | toxicity for infected mice (intraperitoneal, 200 mg/kg/day): toxic | efficiency of intraperitoneal treatment (intraperitoneal, only in doses of 50 and 100 mg/kg/day): efficient
